What was measured:
[1] = biological target: T1, bFGF (Homo sapiens, UniProt P09038); assay: Evaluation of bFGF stabilization in Lonza serum-free medium (ELISA); format: biochemical
T1 construct: purchased Lonza (via TAKARA BIO INC.) Ser. No. 00/190,632
Method: (§1) A test compound was dissolved in phosphate buffered saline, and diluted 10-fold with a serum-free medium to adjust to the concentrations shown in Table 4 (test sample). The test sample was left standing in a tightly sealed Falcon tube at 37° C. for 7 days (Tables 5 to 8-2) or 3 days (Table 8-3), and the bFGF concentration was quantified by ELISA measurement. A phosphate buffered saline without a test compound was diluted 10-fold with a serum-free medium, and left standing at 37° C. or 4° C. for 7 days or 3 days, and used as a control.
(§2) A commercially available measurement kit (human bFGF ELISA kit, ELH-bFGF-001, Ray Biotech) was used for quantification of bFGF in the medium. The measurement procedures followed the protocol attached to the kit. The bFGF concentration of the serum-free medium was calculated from the analytical curve (conversion formula) drawn from the absorbance of an analytical curve standard solution. The evaluation criteria of Tables 5-8 are as follows:
as §1, with “Table 13” for “Table 4”, “7 days,” for “7 days (Tables 5 to 8-2) or 3 days (Table 8-3),”, “7” for “7 days or 3”
as §2, with “Table 13” for “Tables 5-8”, “follows: […]” for “follows:”

[2] = biological target: T1, bFGF; assay: Evaluation of bFGF stabilization in Essential 8 medium (ELISA); format: biochemical; conditions: 37° C. for 7 days
Method: as §2
(§3) A test compound was dissolved in phosphate buffered saline, and diluted 10-fold with a serum-free medium to adjust the concentration shown in Table 4 (test sample). The test sample was left standing in a tightly sealed Falcon tube at 37° C. for 7 days, and the bFGF concentration was quantified by ELISA measurement. A phosphate buffered saline without a test compound was diluted 10-fold with Essential 8 medium or ReproFF2 medium, and left standing at 37° C. or 4° C. for 7 days, and used as a control.
as §2, with “Table 13” for “Tables 5-8”
as §3, with “Table 12” for “Table 4”

[3] = tested on: Human bone marrow-derived mesenchymal stem cells; assay: Mesenchymal stem cell proliferation system (cell number by DNA quantification)
[4] = Lonza serum-free medium, 37° C. for 7 days, test compound 25 ng/ml
[5] = Lonza serum-free medium, 37° C. for 7 days, test compound 250 ng/ml
[6] = Lonza serum-free medium, 37° C. for 7 days, test compound 25 μg/ml
[7] = Lonza serum-free medium, 37° C. for 7 days, test compound 250 μg/ml
[8] = Lonza serum-free medium, 37° C. for 7 days, test compound 250 pg/ml

T1 sequence (P09038 143-288): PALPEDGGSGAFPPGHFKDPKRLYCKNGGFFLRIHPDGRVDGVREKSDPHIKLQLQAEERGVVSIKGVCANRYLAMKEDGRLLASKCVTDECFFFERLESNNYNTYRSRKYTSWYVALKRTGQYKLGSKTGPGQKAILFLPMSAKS

Compound	bFGF concentration relative to that of 4° C. control (ELISA) [1, 4]	bFGF concentration relative to that of 4° C. control (ELISA) [1, 5]	bFGF concentration relative to that of 4° C. control (ELISA) [1, 6]	bFGF concentration relative to that of 4° C. control (ELISA) [1, 7]	other results
OC[C@H]1O[C@H](O[C@H]2[C@H](O)[C@@H](O)[C@@H](O[C@H]3[C@H](O)[C@@H](O)C(O)O[C@@H]3CO)O[C@@H]2CO)[C@H](O)[C@@H](O)[C@@H]1O (stereo partly drawn) [maltotriose, reference compound]	x (bFGF concentration was less than 10% relative to that of 4 °C control)	x (bFGF concentration was less than 10% relative to that of 4 °C control)	x (bFGF concentration was less than 10% relative to that of 4 °C control)	x (bFGF concentration was less than 10% relative to that of 4 °C control)	bFGF concentration relative to that of 4° C. control (ELISA) ([2]; test compound 250 pg/ml): x (bFGF concentration was less than 10% relative to that of 4 °C control); bFGF concentration relative to that of 4° C. control (ELISA) ([2]; test compound 25 ng/ml): x (bFGF concentration was less than 10% relative to that of 4 °C control); bFGF concentration relative to that of 4° C. control (ELISA) ([2]; test compound 250 ng/ml): x (bFGF concentration was less than 10% relative to that of 4 °C control); bFGF concentration relative to that of 4° C. control (ELISA) ([2]; test compound 25 μg/ml): x (bFGF concentration was less than 10% relative to that of 4 °C control); bFGF concentration relative to that of 4° C. control (ELISA) ([2]; test compound 250 μg/ml): x (bFGF concentration was less than 10% relative to that of 4 °C control)
NC(COS(=O)(=O)[O-])C(=O)O.[Na+] (stereo not drawn) [serine SO3Na]	x (bFGF concentration was less than 10% relative to that of 4 °C control)	x (bFGF concentration was less than 10% relative to that of 4 °C control)	− (bFGF concentration was not less than 10% and less than 30% relative to that of 4 °C control)	+++ (bFGF concentration was not less than 70% relative to that of 4 °C control)	concentration showing a suppressive effect on a decrease in the bFGF concentration of the medium ([1]; Lonza serum-free medium, 37° C. for 7 days): not less than 25 μg/ml; bFGF concentration relative to that of 4° C. control (ELISA) [1, 8]: x (bFGF concentration was less than 10% relative to that of 4 °C control); number of cells relative to control ([3]; test compound 25 pg/ml, mesenchymal stem cells): — (100-50); number of cells relative to control ([3]; test compound 250 pg/ml, mesenchymal stem cells): — (100-50); number of cells relative to control ([3]; test compound 25 ng/ml, mesenchymal stem cells): — (100-50); number of cells relative to control ([3]; test compound 250 ng/ml, mesenchymal stem cells): — (100-50)
OC[C@@H](O)[C@@H](O[C@H]1O[C@H](CO)[C@@H](O)[C@H](O)[C@H]1O)[C@H](O)[C@@H](O)CO [maltitol, reference compound]	x (bFGF concentration was less than 10% relative to that of 4 °C control)	x (bFGF concentration was less than 10% relative to that of 4 °C control)	x (bFGF concentration was less than 10% relative to that of 4 °C control)	x (bFGF concentration was less than 10% relative to that of 4 °C control)	
OC[C@@H](O)[C@H](O)[C@@H](O)CO [xylitol, reference compound]	x (bFGF concentration was less than 10% relative to that of 4 °C control)	x (bFGF concentration was less than 10% relative to that of 4 °C control)	x (bFGF concentration was less than 10% relative to that of 4 °C control)	x (bFGF concentration was less than 10% relative to that of 4 °C control)	
tartrate-SO3Na	x (bFGF concentration was less than 10% relative to that of 4 °C control)	− (bFGF concentration was not less than 10% and less than 30% relative to that of 4 °C control)	x (bFGF concentration was less than 10% relative to that of 4 °C control)	x (bFGF concentration was less than 10% relative to that of 4 °C control)	concentration at which a decrease in the protein amount of FGF is not suppressed ([1]; as shown in the Examples (methods of Examples I-1 and II-1)): not more than 250 μg/ml; effectiveness ELISA ([1]; effectiveness in ELISA evaluation of mesenchymal stem cells (medium), 4° C. control ratio): ++ (++ 50%<); effectiveness cells ([3]; growth of mesenchymal stem cell, control ratio): ◯ (◯ not leas than 100%); concentration showing promoted cell proliferation as compared to the control ([3]; mesenchymal stem cells, Lonza serum-free medium): 2.5 ng/mL; concentration showing a suppressive effect on a decrease in the bFGF concentration of the medium [2]: not less than 250 μg/ml; bFGF concentration relative to that of 4° C. control (ELISA) ([2]; test compound 250 pg/ml): x (bFGF concentration was less than 10% relative to that of 4 °C control); bFGF concentration relative to that of 4° C. control (ELISA) ([2]; test compound 25 ng/ml): x (bFGF concentration was less than 10% relative to that of 4 °C control); bFGF concentration relative to that of 4° C. control (ELISA) ([2]; test compound 250 ng/ml): x (bFGF concentration was less than 10% relative to that of 4 °C control); bFGF concentration relative to that of 4° C. control (ELISA) ([2]; test compound 25 μg/ml): x (bFGF concentration was less than 10% relative to that of 4 °C control); bFGF concentration relative to that of 4° C. control (ELISA) ([2]; test compound 250 μg/ml): − (bFGF concentration was not less than 10% and less than 30% relative to that of 4 °C control)
N[C@@H](CO)C(=O)O [serine, reference compound]	x (bFGF concentration was less than 10% relative to that of 4 °C control)	x (bFGF concentration was less than 10% relative to that of 4 °C control)	x (bFGF concentration was less than 10% relative to that of 4 °C control)	x (bFGF concentration was less than 10% relative to that of 4 °C control)	bFGF concentration relative to that of 4° C. control (ELISA) [1, 8]: x (bFGF concentration was less than 10% relative to that of 4 °C control)
OC[C@@H](O)[C@@H](O)[C@H](O)[C@H](O)CO [mannitol, reference compound]	x (bFGF concentration was less than 10% relative to that of 4 °C control)	x (bFGF concentration was less than 10% relative to that of 4 °C control)	x (bFGF concentration was less than 10% relative to that of 4 °C control)	x (bFGF concentration was less than 10% relative to that of 4 °C control)	
OC[C@H]1O[C@@](CO)(O[C@H]2O[C@H](CO)[C@@H](O)[C@H](O)[C@H]2O)[C@@H](O)[C@@H]1O [sucrose, reference compound]	x (bFGF concentration was less than 10% relative to that of 4 °C control)	x (bFGF concentration was less than 10% relative to that of 4 °C control)	x (bFGF concentration was less than 10% relative to that of 4 °C control)		
OC[C@H]1O[C@@H]2O[C@H]3[C@H](O)[C@@H](O)[C@@H](O[C@H]4[C@H](O)[C@@H](O)[C@@H](O[C@H]5[C@H](O)[C@@H](O)[C@@H](O[C@H]6[C@H](O)[C@@H](O)[C@@H](O[C@H]7[C@H](O)[C@@H](O)[C@@H](O[C@H]1[C@H](O)[C@H]2O)O[C@@H]7CO)O[C@@H]6CO)O[C@@H]5CO)O[C@@H]4CO)O[C@@H]3CO [α-CD, α-cyclodextrin, reference compound]				x (bFGF concentration was less than 10% relative to that of 4 °C control)	

— patent US10689622B2, “Culture medium for proliferating stem cell, which contains sulfated compound” (AJINOMOTO CO., INC., priority 2012, dated 2020)
